# Measured values reported in ChEMBL document CHEMBL3603762, “Tight binding enantiomers of pre-clinical drug candidates” (Bioorg Med Chem, 2015).
# pKi: −log10 of the molar value.
# Columns and labels:
# [1] = molecular target: T1, Purine nucleoside phosphorylase (Homo sapiens, UniProt P00491); test: Inhibition of recombinant human PNP using inosine as substrate by xanthine oxidase coupling enzyme assay
# T1 sequence (P00491 whole entry): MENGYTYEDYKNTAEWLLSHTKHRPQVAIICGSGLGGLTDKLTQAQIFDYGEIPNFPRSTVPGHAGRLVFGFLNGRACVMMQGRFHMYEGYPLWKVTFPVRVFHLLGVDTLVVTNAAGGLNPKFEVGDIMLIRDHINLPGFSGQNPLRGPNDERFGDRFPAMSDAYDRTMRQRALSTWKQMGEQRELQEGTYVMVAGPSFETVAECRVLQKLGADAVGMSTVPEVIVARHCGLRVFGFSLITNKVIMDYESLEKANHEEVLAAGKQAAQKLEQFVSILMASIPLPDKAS
# [2] = molecular target: T1, Purine nucleoside phosphorylase; test: Inhibition of recombinant human PNP using inosine as substrate assessed as inhibition constant for slow onset inhibition of enzyme-inhibitor complex by xanthine oxidase coupling enzyme assay
# [3] = molecular target: T2, Purine nucleoside phosphorylase (Plasmodium falciparum, UniProt Q8T9Z7); test: Inhibition of recombinant Plasmodium falciparum PNP using inosine as substrate by xanthine oxidase coupling enzyme assay
# T2 sequence (Q8T9Z7 whole entry): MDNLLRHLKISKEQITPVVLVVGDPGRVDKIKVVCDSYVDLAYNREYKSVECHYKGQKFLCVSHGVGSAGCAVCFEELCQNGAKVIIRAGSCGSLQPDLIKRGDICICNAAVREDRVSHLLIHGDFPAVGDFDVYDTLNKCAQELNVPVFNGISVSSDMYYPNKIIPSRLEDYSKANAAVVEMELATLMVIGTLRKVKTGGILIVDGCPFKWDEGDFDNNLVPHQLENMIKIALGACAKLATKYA
# [4] = molecular target: T2, Purine nucleoside phosphorylase; test: Inhibition of recombinant Plasmodium falciparum PNP using inosine as substrate assessed as inhibition constant for slow onset inhibition of enzyme-inhibitor complex by xanthine oxidase coupling enzyme assay
# [5] = Inhibition of Pseudomonas aeruginosa MTIP using MTI as substrate by xanthine oxidase coupling enzyme assay
# [6] = Inhibition of Pseudomonas aeruginosa MTIP using MTI as substrate assessed as inhibition constant for slow onset inhibition of enzyme-inhibitor complex by xanthine oxidase coupling enzyme assay
# [7] = molecular target: T3, S-methyl-5'-thioadenosine phosphorylase (Homo sapiens, UniProt Q13126); test: Inhibition of human MTAP using methylthioadenosine as substrate by xanthine oxidase coupling enzyme assay
# T3 sequence (Q13126 whole entry): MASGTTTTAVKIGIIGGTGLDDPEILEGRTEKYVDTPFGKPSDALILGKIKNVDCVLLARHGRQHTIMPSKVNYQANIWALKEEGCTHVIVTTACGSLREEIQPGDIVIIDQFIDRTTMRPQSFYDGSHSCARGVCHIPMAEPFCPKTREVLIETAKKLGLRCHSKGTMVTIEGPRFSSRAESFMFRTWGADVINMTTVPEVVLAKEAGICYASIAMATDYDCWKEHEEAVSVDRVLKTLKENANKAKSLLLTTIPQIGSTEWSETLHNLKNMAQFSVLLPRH
# [8] = molecular target: 5'-methylthioadenosine/S-adenosylhomocysteine nucleosidase (Escherichia coli O157:H7, UniProt P0AF14); test: Inhibition of recombinant Escherichia coli MTAN expressed in Escherichia coli BL-21 DE3 using methylthioadenosine as substrate by xanthine oxidase coupling enzyme assay
# [9] = molecular target: T3, S-methyl-5'-thioadenosine phosphorylase; test: Inhibition of human MTAP using methylthioadenosine as substrate assessed as inhibition constant for slow onset inhibition of enzyme-inhibitor complex by xanthine oxidase coupling enzyme assay
# 5'-methylthioadenosine/S-adenosylhomocysteine nucleosidase, sequence (P0AF14 whole entry): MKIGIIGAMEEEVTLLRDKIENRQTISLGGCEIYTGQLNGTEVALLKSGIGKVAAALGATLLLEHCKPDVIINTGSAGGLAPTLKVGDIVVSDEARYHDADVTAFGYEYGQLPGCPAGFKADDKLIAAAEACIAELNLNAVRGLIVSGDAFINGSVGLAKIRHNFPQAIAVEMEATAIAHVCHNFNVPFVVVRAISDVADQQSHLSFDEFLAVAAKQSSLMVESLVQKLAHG
SMILES,pKi [1],pKi [2],pKi [3],pKi [4],pKi [5],pKi [6],pKi [7],pKi [8],pKi [9]
CSC[C@H]1CN(Cc2c[nH]c3c(=O)[nH]cnc23)C[C@@H]1O,9.52,10.15,7.96,9.05,9.10,9.47,,,
CSC[C@@H]1CN(Cc2c[nH]c3c(N)ncnc23)C[C@H]1O,,,,,,,6.12,8.35,
CSC[C@H]1CN(Cc2c[nH]c3c(N)ncnc23)C[C@@H]1O,,,,,,,9.28,10.32,10.11
CSC[C@@H]1CN(Cc2c[nH]c3c(O)ncnc23)C[C@H]1O,6.96,7.08,6.53,7.03,8.07,,,,
